“Also recorded” adds a separate entry of the source.
Legend:
[1] = test system: cerebellar granule neurons (CGNs); assay: serum deprivation/KCl reduction-induced degeneration; type: cell-based, mouse; conditions: 5 mM KCl, 24 hours
Experimental: Kinase inhibitors (inhibitors of GSK3, JNK, EGFR, p38, and CaMKK) were tested for their capacity to protect cultured cerebellar granule neurons (CGNs) following serum deprivation/KCl reduction. Briefly, CGNs isolated from P7 mouse brain were cultured on PDL- and laminin-coated 96-well tissue culture dishes in medium containing serum and potassium (Basal Medium Eagles including 29 mM KCl and 10% FBS) at 37° C. After 24 hours in culture, cells were switched to “deprivation” medium (Basal Medium Eagles including 5 mM KCl), alone or in combination with various small molecule inhibitors as shown in Table 8. After a further 24 hours in culture, the neurons were fixed with 4% paraformaldehyde and stained with a neuronal marker (anti-class III β-Tubulin, Covance). Image acquisition was performed using the ImageXpress automated imaging system (Molecular Devices).

[2] = test system: DRGs; assay: Campenot chamber local axon degeneration, anti-NGF in axon compartment; type: cell-based, mouse; conditions: for formation of varicosities in locally NGF-deprived axons: axon inhibitors added to axon compartment: 10 μM AG555, 30 μM SB239; for Axon Compartment (axon protected when inhibitor is in axon compartment) / Cell Body Compartment (axon protected when inhibitor is in cell body compartment): anti-NGF in axon compartment, 28 hours
Experimental: Teflon dividers (Tyler Research) were cleaned by washing in water and wiping them clean of any residual grease. Dividers were then soaked in Nochromix (Godax Laboratories)/sulfuric acid overnight, rinsed five times in distilled and autoclaved water (SQ water), boiled for 30 minutes, and then air-dried before use.
Mouse laminin (5 μg/ml in sterile filtered water; Invitrogen) was added to PDL coated 35 mm dishes (BD Biosciences) and they were incubated for 1 hour at 37° C., followed by two rinses in SQ water. The dishes were vacuum-dried and then air-dried in a laminar flow hood for 15 minutes. Prepared dishes were then scored with a pin rake (Tyler Research). […] High vacuum grease (VWR) was added to each Teflon divider under a dissection scope. The laminin coated PDL dishes were inverted and dropped onto the Teflon divider, with additional pressure added by use of a toothpick in the non-track-containing regions. Dishes were incubated for 1 hour at 37° C. Five hundred microliters of NBM+MC (50 ng/ml NGF) solution was added to each of the side compartments, and a grease barrier was added in front of the center cell slot.
Free E13.5 spinal cords were dissected from mouse embryos and placed into NBM+MC (25 ng/ml NGF) solution. DRGs were detached from the spinal cord with a tungsten needle. An NBM+MC-lubricated P200 pipette was used to move DRGs into a 1.5 ml tube. DRGs were pelleted with a tabletop centrifuge for 30 seconds. The supernate was discarded and 0.05% Trypsin/EDTA (cold) was added. The pellet was resolubilized with a pipette and incubated at 37° C. for 15 minutes with constant agitation (650 RPM). The sample was again centrifuged and the supernate discarded. The pellet was resuspended in warm NBM+MC (50 ng/ml NGF) solution and triturated with a flamed glass pipette 20 times, followed by trituration with a fire-bored glass pipette another 20 times. The samples were again centrifuged and the resulting pellets were resuspended in 0.5 ml NBM+MC (50 ng/ml NGF) solution. The cells were diluted to a final concentration of 2.5×10^6 cells/ml. The cell suspensions were loaded into a 1 ml syringe with a 22 gauge needle. The center slot of the Campenot divider was filled using the syringe (to a volume of at least 50 μl). The Campenot chamber was incubated overnight at 37° C. 2.5 ml NGF+MC (50 ng/ml NGF) solution was added to the center compartment and the grease gate was removed. The outer medium (cell body compartment) was replaced after three days with 2.5 ml NBM+MC medium (with 25 ng/ml NGF). After five days in culture, one distal compartment was washed three times with warmed NBM+MC (no NGF) solution. After the third wash, 500 μl NBM+MC (no NGF) solution was added to the axon compartment in combination with either 0.5% DMSO or an inhibitor. The cell body compartment was replaced with 2.5 ml NBM+MC medium (with 25 ng/ml NGF) containing either 0.5% DMSO or inhibitor.
After 28 hours of anti-NGF antibody treatment, 8% PFA/30% sucrose solution (see above) was added directly to the culture medium at a 1:1 dilution and incubated for 30 minutes. The Teflon divider was removed after the first 15 minutes of addition. The system was washed once with 2.5 ml PBS prior to immunostaining. Neurons were blocked in 5% BSA/0.2% triton in PBS for 30 minutes. The primary antibody Tuj1 (Covance) was added to a final dilution of 1:1000 in PBS containing 2% BSA and incubated overnight at 4° C. The dish was washed once with PBS. […] The dish was washed twice with PBS, and a 22×22 mm coverslip (VWR) was added with 350 μl of fluoromount G (Electron Microscopy Sciences). The neurons were visualized by use of a fluorescence microscope.
As described above, E13.5 DRGs were isolated and grown for 5 days in a Campenot chamber.

[3] = test system: DRGs; assay: G-protein/GPCR inhibitors in NGF withdrawal-induced degeneration in DRGs; type: cell-based
Experimental: The assays described herein identified several inhibitors of G-proteins and G-protein coupled receptors (GPCRs) that decrease degeneration in neurons. Experiments were performed in DRGs to verify the role of G-proteins and GPCRs in degeneration pathways. The experimental protocols used in these experiments are the same as those described in Example 14. Pertussis toxin and SCH 202676 were purchased from Tocris Bioscience.

[4] = test system: dorsal spinal cord explants; assay: dorsal spinal cord (DSC) explant degeneration; type: cell-based; conditions: 3.4 μM, 11.1 μM, 33.3 μM and 100 μM (FIG. 37)
From the text: DSCs grow out axons over a period of days, but if they are not rescued with the addition of a survival factor, they will eventually degenerate.

[5] = test system: ERK; assay: ERK activation by EGFR ligand, Western blot; type: cell-based, mouse; conditions: 100 μg/mL EGF, 30 minutes to 1 hour
Experimental: (§1) Dorsal Root Ganglia (DRG) immunoblots were prepared as follows. Primary cells used in the experiments were Charles River CD-1 E13 Dorsal Root Ganglia (DRG). The cells were maintained in N3/F12 (+25 ng/ml NGF) medium (Ham's F12 (23 ml), N3 supplement (1 ml), glucose (1 ml of 1 M glucose stock), 25 ng/ml Nerve Growth Factor 2.5 S, mouse (Roche 11362348001) in Ham's F12 (stock: 50 μg/ml −80° C.), which was filter-sterilized prior to use). The experiments also employed Triton lysis buffer (20 mM Tris pH 7.5, 150 mM NaCl, 0.1% Triton-X100, 100× Phosphatase inhibitor cocktail I (added fresh), 100× Phosphatase inhibitor cocktail II (added fresh), 1 tablet/10 ml Protease inhibitor tablet (added fresh)).
(§2) DRG explants were prepared on Day 0. Embryo dissections were carried out in L15 medium (dissection tools were soaked in 70% isopropanol, and dishes were set up on ice: 10 cm dishes (4 embryos per dish) and one 6 cm dish for spinal cords). E13.5 spinal cords were extracted into DMEM+10% FBS. […]
Immunoblotting was carried out by aspiration of media with a pipette tip, washing twice with ice-cold sterile PBS, and removal of all PBS using an aspirator with a pipette tip or kimwipes. […] Quantification was carried out by choosing a background method and standard bands that minimize negative/counter-intuitive values: i.e., top/bottom, right/left, user-defined (user-defined). […]

[6] = test system: dorsal root ganglion neurons; assay: EGFR ligand added to neurons maintained in NGF: axon degeneration; type: cell-based, mouse; conditions: 100 μg/mL EGF
Experimental: as §1
as §2, with “FBS. 5×20 DRGs were detached from the spinal cord. 8 well slides were filled with 250 μl N3/F12 (25 ng/ml NGF)+7 μM cytosine arabinoside.” for “FBS.”
The goal of these experiments was to see if activation of EGFR by EGF would be sufficient to drive degeneration. […] To ensure that EGF is capable of activating EGFR/ErbBs in the neuronal cultures used in these assays, ERK activation was assessed (ERK is a downstream target of EGFR).

[7] = test system: heregulin induced tyrosine phosphorylation in MDA-MB-453 cells; conditions: published source (footnote b), read-out: Cellular IC50; cited from earlier work
[8] = test system: protein tyrosine phosphorylation in 3T3-Her2 cells; conditions: published source (footnote c), read-out: Cellular IC50; cited from earlier work
[9] = inhibitor 30 μM, listed as SB239
[10] = inhibitor 30 μM, listed as SB239063

In the case of `COc1nccc(-c2c(-c3ccc(F)cc3)ncn2C2CCC(O)CC2)n1` (centres unmarked) [SB 239063], the “protection of cerebellar granule neurons from serum deprivation/KCl reduction” value ([1]; inhibitor 5 μM) is reported as “protect cerebellar granule neurons from serum deprivation/KCl reduction”, the “formation of varicosities in locally NGF-deprived axons” value [2] is reported as “fewer varicosities” and the “Axon Compartment (axon protected when inhibitor is in axon compartment)” value ([2]; inhibitor 5 μM) is reported as “Yes (1)”. For the same molecule, the “Cell Body Compartment (axon protected when inhibitor is in cell body compartment)” value ([2]; inhibitor 5 μM) was “No (1)”, the “Axon Compartment (axon protected when inhibitor is in axon compartment)” value [2, 9] was “did not degenerate; also recorded: protected from local degeneration” and the “Cell Body Compartment (axon protected when inhibitor is in cell body compartment)” value [2, 9] was “failed to prevent degeneration”. For the same molecule, the “Axon Compartment (axon protected when inhibitor is in axon compartment)” value [2, 10] was “Yes (3)” and the “Cell Body Compartment (axon protected when inhibitor is in cell body compartment)” value [2, 10] was “No (3)”.
For `CN=c1nc(-c2ccccc2)n(-c2ccccc2)s1` [SCH 202676], the “NGF withdrawal-induced degeneration in DRGs” value ([3]; 0.1 μM, 1 μM, 10 μM or 100 μM (FIGS. 49 and 50)) was “decreases NGF withdrawal-induced degeneration in DRGs”.
With `C=C/C=C(\C=C)CCCNC(=O)/C(C#N)=C/c1ccc(O)c(O)c1` [AG 555] the “protection of cerebellar granule neurons from serum deprivation/KCl reduction” value ([1]; inhibitor 1 μM or 10 μM) was “protect cerebellar granule neurons from serum deprivation/KCl reduction”, the “formation of varicosities in locally NGF-deprived axons” value [2] was “fewer varicosities” and the “Axon Compartment (axon protected when inhibitor is in axon compartment)” value ([2]; inhibitor 10 μM) was “did not degenerate; also recorded: protected from local degeneration; also recorded: Yes (4)”. The “Cell Body Compartment (axon protected when inhibitor is in cell body compartment)” value ([2]; inhibitor 10 μM) was “failed to prevent degeneration; also recorded: No (4)”.
For `C#Cc1cccc(Nc2ncnc3cc(OCCOC)c(OCCOC)cc23)c1` [Tarceva, N-(3-ethynylphenyl)-6,7-bis(2-methoxyethoxy)quinazolin-4-amine], the “degeneration in dorsal spinal cord explants” value [4] was “delay this degeneration program; also recorded: blocks degeneration in dorsal spinal cord explants”.
For “EGF: ErbB ligand (ErbB1) that activates EGFR (NSDSECPLSHDGYCLHDGVCMYIEALDKYACNCVVGYIGERCQYRDLKWWELR; Epidermal growth factor; UniProt P01133 971-1023, looked up)”, the “phosphorylation of ERK (ERK activity by Western blot)” value [5] was “increased ERK activity; also recorded: induces phosphorylation of ERK” and the “induction of axon degeneration in neurons maintained in NGF” value [6] was “does not cause degeneration; also recorded: does not induce axon degeneration”.
In the case of `O=C1c2ccccc2-c2n[nH]c3cccc1c23` [SP600125], the “protection of cerebellar granule neurons from serum deprivation/KCl reduction” value ([1]; inhibitor 5 μM) is reported as “protect cerebellar granule neurons from serum deprivation/KCl reduction”, the “Axon Compartment (axon protected when inhibitor is in axon compartment)” value ([2]; inhibitor 5 μM) is reported as “Yes (1)” and the “Cell Body Compartment (axon protected when inhibitor is in cell body compartment)” value ([2]; inhibitor 5 μM) is reported as “Yes (1)”. For the same molecule, the “Axon Compartment (axon protected when inhibitor is in axon compartment)” value ([2]; inhibitor 10 μM) was “Yes (1)” and the “Cell Body Compartment (axon protected when inhibitor is in cell body compartment)” value ([2]; inhibitor 10 μM) was “Yes (1)”.
For `C=CC(=O)Nc1ccc2ncnc(Nc3cccc(Br)c3)c2c1` [PD168393], the IC50 [7] is given as 0.005 µM, the “Axon Compartment (axon protected when inhibitor is in axon compartment)” value ([2]; inhibitor 5 μM) is given as “Yes (1)” and the “Cell Body Compartment (axon protected when inhibitor is in cell body compartment)” value ([2]; inhibitor 5 μM) is given as “No (1)”. For the same molecule, the IC50 [8] was 100 µM.
For Pertussis toxin, the “degeneration in neurons following NGF withdrawal” value ([3]; 0.01 μg/mL, 0.1 μg/mL or 1 μg/mL (FIG. 51)) was “decreases degeneration in neurons following NGF withdrawal”.
